The text below walks through data of patent US20250009830A1 (priority 2021, published 2025).

Test systems include SARS-CoV-2 Delta; SARS-CoV-2 Alpha; SARS-CoV-2 Omicron; SARS-CoV-2 Gamma; SARS-CoV-2 Beta.
What all share (assay): microbe, parasite or virus in culture
Holding throughout (format): cell-based
Holding throughout (conditions): read-out: IC50 of the main compounds of EC 3.2

Experiment [1] concerns SARS-CoV-2 Wuhan type (SARS-CoV-2PR-1).
Where [2] appears, read: Calu-3, calculated from EC 3.2 IC50 and HPLC analysis (Table 4).
The mark [3] stands for this setting: Severe acute respiratory syndrome coronavirus 2, Calu-3, calculated from EC 3.2 IC50 and HPLC analysis (Table 4).

pIC50: −log10 of the molar value. Where two headings read alike, the source gives them in different places.

As usually defined, the pIC50 is the negative decadic logarithm of the IC50, by convention in mol/L. Turning to `OC[C@H]1O[C@@H](Oc2cc3c(O)cc(O)cc3[o+]c2-c2ccc(O)c(O)c2)[C@H](O)[C@@H](O)[C@@H]1O` [Cyanidin-3-glucoside], the negative-log IC50 (pIC50) is 4.09 in the experiment with SARS-CoV-2 Delta (setting [2]); 4.39 in experiment [1] (setting [2]); 3.78 in the experiment on SARS-CoV-2 Alpha (setting [2]); 4.09 in the experiment with SARS-CoV-2 Omicron (setting [2]); 3.91 in the experiment on SARS-CoV-2 Gamma (setting [2]); 3.91 with SARS-CoV-2 Beta (setting [2]).
`C[C@@H]1O[C@@H](OC[C@H]2O[C@@H](Oc3c(-c4ccc(O)c(O)c4)oc4cc(O)cc(O)c4c3=O)[C@H](O)[C@@H](O)[C@@H]2O)[C@H](O)[C@H](O)[C@H]1O` [Rutin]: the negative-log IC50 (pIC50) with SARS-CoV-2 Delta (setting [3]) was 4.47; in experiment [1] (setting [3]), 4.77; in the experiment on SARS-CoV-2 Alpha (setting [3]), 4.17; with SARS-CoV-2 Omicron (setting [3]) it was 4.47; in the experiment with SARS-CoV-2 Gamma (setting [3]) it was 4.29; in the experiment with SARS-CoV-2 Beta (setting [3]), 4.29.
Regarding `OC[C@H]1O[C@@H](Oc2cc3c(O)cc(O)cc3[o+]c2-c2ccc(O)c(O)c2)[C@H](O[C@@H]2OC[C@@H](O)[C@H](O)[C@H]2O)[C@@H](O)[C@@H]1O` [Cyanidin-3-sambubioside], the negative logarithm of the IC50 (pIC50) is 4.15 in the experiment with SARS-CoV-2 Delta (setting [2]); 4.46 in experiment [1] (setting [2]); 3.85 in the experiment with SARS-CoV-2 Alpha (setting [2]); 4.15 in the experiment on SARS-CoV-2 Omicron (setting [2]); 3.97 in the experiment with SARS-CoV-2 Gamma (setting [2]); 3.97 in the experiment with SARS-CoV-2 Beta (setting [2]).
As for `O=c1c(O[C@@H]2O[C@H](CO)[C@@H](O)[C@H](O)[C@H]2O)c(-c2ccc(O)c(O)c2)oc2cc(O)cc(O)c12` [Isoquercitrin], the negative logarithm of the IC50 (pIC50) was 5.57 in the experiment with SARS-CoV-2 Delta (setting [3]); 5.89 in experiment [1] (setting [3]); 5.27 with SARS-CoV-2 Alpha (setting [3]); 5.57 with SARS-CoV-2 Omicron (setting [3]); 5.40 in the experiment on SARS-CoV-2 Gamma (setting [3]); 5.40 in the experiment on SARS-CoV-2 Beta (setting [3]).
On to `O=C(/C=C/c1ccc(O)c(O)c1)O[C@@H]1C[C@](O)(C(=O)O)C[C@@H](O)[C@H]1O` [Chlorogenic acid], for which the pIC50 in the experiment on SARS-CoV-2 Delta (setting [3]) is 4.89; in experiment [1] (setting [3]), 5.18; in the experiment with SARS-CoV-2 Alpha (setting [3]), 4.57; in the experiment with SARS-CoV-2 Omicron (setting [3]), 4.89; in the experiment on SARS-CoV-2 Gamma (setting [3]), 4.70; with SARS-CoV-2 Beta (setting [3]), 4.70.
Turning to `OC[C@H]1O[C@@H](Oc2cc(O)cc3[o+]c(-c4ccc(O)c(O)c4)c(O[C@@H]4O[C@H](CO)[C@@H](O)[C@H](O)[C@H]4O[C@@H]4OC[C@@H](O)[C@H](O)[C@H]4O)cc23)[C@H](O)[C@@H](O)[C@@H]1O` [Cyanidin-3-sambubioside-5-glucoside], the negative logarithm of the IC50 (pIC50) in the experiment on SARS-CoV-2 Delta (setting [2]) was 4.92; in experiment [1] (setting [2]) it was 5.22; in the experiment with SARS-CoV-2 Alpha (setting [2]) it was 4.62; in the experiment on SARS-CoV-2 Omicron (setting [2]), 4.92; in the experiment with SARS-CoV-2 Gamma (setting [2]), 4.74; in the experiment with SARS-CoV-2 Beta (setting [2]), 4.74.
